In ChEMBL document CHEMBL4610081, “Anti-inflammatory Metabolites from Chaetomium nigricolor” (J Nat Prod, 2020):
The source made the active and inactive calls. The calls are words filed in the database; no cut-off is given here.

Tested on: RAW264.7
Test: Antiinflammatory activity against mouse RAW264.7 cells assessed as inhibition of LPS-induced NO production preincubated for 3 hrs followed by LPS-stimulation and measured after 24 hrs by Griess reagent based assay
Type: functional, cell-based

Row | SMILES | Activity
1 | NC(=O)c1coc(Cc2ccccc2)cc1=O | inactive
2 | O=C(O)c1ccc(CO)o1 | inactive
